As usually defined, the Ki is the equilibrium dissociation constant of an inhibitor or competing ligand from its target.

Here are results for 25 compounds from patent publication US5519034A, “Tetraisoquinoline compounds which have useful pharmaceutical utility” (The Boots Company PLC, priority 1991, dated 1996).

The target in test [1] is T1, D1 dopamine receptors (Rattus norvegicus, UniProt P18901).
T1 construct: Striatal samples from the brains of male Charles River CD rats; from tissue; host or cells: striatum of male Charles River CD rats (washed membrane pellet)
T1 sequence (P18901 whole entry): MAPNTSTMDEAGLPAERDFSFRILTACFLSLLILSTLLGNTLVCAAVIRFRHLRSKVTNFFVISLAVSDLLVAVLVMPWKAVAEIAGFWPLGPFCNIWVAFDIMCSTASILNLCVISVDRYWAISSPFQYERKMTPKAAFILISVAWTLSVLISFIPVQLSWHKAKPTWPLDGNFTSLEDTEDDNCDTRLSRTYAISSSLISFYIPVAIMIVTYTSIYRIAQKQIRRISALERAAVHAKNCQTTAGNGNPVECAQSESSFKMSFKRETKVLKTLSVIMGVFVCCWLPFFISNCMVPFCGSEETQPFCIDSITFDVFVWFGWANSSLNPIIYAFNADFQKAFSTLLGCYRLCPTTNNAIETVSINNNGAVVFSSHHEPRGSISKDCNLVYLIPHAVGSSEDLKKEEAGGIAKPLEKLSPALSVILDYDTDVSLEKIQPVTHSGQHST
As to the kind of experiment: D1 dopamine receptor binding: inhibition of tritiated SCH 23390 binding, rat striatal samples. The arrangement: species or system rat (male Charles River CD rats). The note with it: rat striatum, tritiated SCH 23390, pH 7.4, 37° C., 30 minutes. Here is the method:
(§1) Striatal samples from the brains of male Charles River CD rats weighing between 140-250 g were homogenised in ice-cold 50 mM Tris-HCl buffer (pH 7.4 when measured at 25° C. for D1 binding assays and pH 7.7 when measured at 25° C. for D2 binding assays) and centrifuged for 10 minutes (at 21,000 g when used for D1binding assay and 40,000 g when used for D2binding assays). The pellet was resuspended in the same buffer, again centrifuged and the final pellet stored at -80° C. Before each test the pellet was resuspended in 50 mM Tris-HCl buffer containing 120 mM NaCl, 5 mM KCl, 2 mM CaCl2 and 1 mM MgCl2 at pH 7.4 for the D1 binding assays and at pH 7.7 with the addition of 6 mM ascorbic acid for the D2 binding assays. Aliquots of this suspension were then added to tubes containing the ligand and either the compound under test or buffer. For the D1 binding assays the ligand was tritiated SCH 23390 and the mixture was incubated at 37° C. for 30 minutes before the incubation was terminated by rapid filtration. For the D2 binding assays the ligand was tritiated (S)-sulpiride and the mixture was incubated at 4° C. for 40 minutes before the incubation was terminated by rapid filtration. Non-specific binding was determined experimentally by the addition of saturating concentrations of chloropromazine or spiroperidol for D1 and D2 receptors respectively.
(§2) The filters were washed with ice-cold Tris-HCl buffer and dried. The filters were punched out on to vials containing scintillation fluid and were left for about 20 hours before being counted by scintillation spectrophotometry. Displacement curves were produced over a range of concentrations of the compound under test and the concentration which gave a 50% inhibition of specific binding (IC50) obtained from the curve. The inhibition coefficient Ki was then calculated using the formula [formula] in which [ligand] is the concentration of the tritiated ligand used and KD is the equilibrium dissociation constant for the ligand.
(§3) In some cases Ki values for D2 binding were estimated from single concentration data by the application of the Langmuir adsorption isotherm equation. These cases are indicated by an "E" in the last two columns of Table I. In other cases it was not possible to determine or estimate the Ki and the Ki value is given as greater than (>) that which would result from the application of the above formula to the highest concentration which displaced ≤50% of the ligand.

In test [2] the target is T2, D2 dopamine receptors (Rattus norvegicus, UniProt P61169).
T2 construct: Striatal samples from the brains of male Charles River CD rats; from tissue; host or cells: striatum of male Charles River CD rats (washed membrane pellet)
T2 sequence (P61169 whole entry): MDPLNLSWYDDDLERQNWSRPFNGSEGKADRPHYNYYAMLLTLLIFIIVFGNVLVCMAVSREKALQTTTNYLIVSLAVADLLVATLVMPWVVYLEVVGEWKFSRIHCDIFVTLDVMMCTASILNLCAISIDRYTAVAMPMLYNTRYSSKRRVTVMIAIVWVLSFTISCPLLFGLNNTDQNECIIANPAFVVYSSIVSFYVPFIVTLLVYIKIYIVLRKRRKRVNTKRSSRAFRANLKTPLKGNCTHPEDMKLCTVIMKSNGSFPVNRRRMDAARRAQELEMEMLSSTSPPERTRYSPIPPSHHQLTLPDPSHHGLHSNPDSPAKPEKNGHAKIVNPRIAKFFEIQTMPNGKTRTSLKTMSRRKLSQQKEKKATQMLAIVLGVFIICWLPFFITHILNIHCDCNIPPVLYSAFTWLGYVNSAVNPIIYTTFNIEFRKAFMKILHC
The test is described as follows: D2 dopamine receptor binding: inhibition of tritiated (S)-sulpiride binding, rat striatal samples. The note with it: for Ki: rat striatum, tritiated (S)-sulpiride; for Ki for D2 / Ki for D1: ratio to two significant figures. On the set-up: species or system rat (male Charles River CD rats). Here is the method: as §1, §2, §3

[3] abbreviates: pH 7.7, 4° C., 40 minutes, > = from highest concentration which displaced ≤50% of the ligand, read-out: Ki for D2 binding.

Read-outs that look alike come from different tables or passages of the source. Bounds are passed on as bounds.

Regarding `COc1cc2c(cc1O)C(C1(c3ccccc3Br)CCC1)N(C)CC2` (centres unmarked) [Example 68, 1-[1-(2-bromophenyl)cyclobutyl]-7-hydroxy-6-methoxy-2-methyl-1,2,3,4-tetrahydroisoquinoline], the Ki in test [1] turned out to be 0.002 µM; in test [2] (setting [3]), 1.9 µM. Further, in test [2], the “Ki for D2 / Ki for D1” value worked out at 950.

With `Cc1cc2c(cc1O)C(C1(c3ccccc3Cl)CC1)N(C)CC2` (centres unmarked) [Example 79, 1-[1-(2-chlorophenyl)cyclopropyl]-7-hydroxy-2,6-dimethyl-1,2,3,4-tetrahydroisoquinoline], the Ki was determined as 0.0012 µM in test [1] and 0.94 µM in test [2] (setting [3]). Besides, the “Ki for D2 / Ki for D1” value in test [2] amounted to 780.

Turning to `CN1CCc2cc(Cl)c(O)cc2C1C1(c2ccccc2Cl)CCC1` (centres unmarked) [Example 22, 6-chloro-1-[1-(2-chlorophenyl)cyclobutyl]-7-hydroxy-2-methyl-1,2,3,4-tetrahydroisoquinoline], the Ki turned out to be 0.0023 µM in test [1] and 1.8 µM in test [2] (setting [3]). Besides, the “Ki for D2 / Ki for D1” value in test [2] was found to be 780.

Take `COc1cc2c(cc1O)C(C1(c3ccccc3)CCCC1)N(C)CC2` (centres unmarked) [Example 48]: the Ki was 0.094 µM in test [1] and 3 µM in test [2] (estimated from single concentration data by Langmuir adsorption isotherm equation, read-out: Ki for D2 binding (marked E)).

Take `CN1CCc2cc(F)c(O)cc2C1C1(c2ccc(Cl)cc2Cl)CC1` (centres unmarked) [Example 81, 1-[1-(2,4-dichlorophenyl)cyclopropyl]-6-fluoro-7-hydroxy-2-methyl-1,2,3,4-tetrahydroisoquinoline]: the Ki in test [1] was 0.0019 µM; in test [2] (setting [3]), 0.33 µM. Moreover, in test [2], the “Ki for D2 / Ki for D1” value was 170.

Turning to `Cc1cc2c(cc1O)C(C1(c3ccccc3Cl)CC1)N(C)CC2` (single isomer, unassigned; (+)) [Example 80, (+)-1-[1-(2-chlorophenyl)cyclopropyl]-7-hydroxy-2,6-dimethyl-1,2,3,4-tetrahydroisoquinoline], the Ki in test [1] is 0.00067 µM; in test [2] (setting [3]) it was 0.37 µM. In addition, in test [2], the “Ki for D2 / Ki for D1” value is recorded as 550.

Regarding `CN1CCc2cc(O)c(O)cc2C1C1(c2ccc(Br)cc2)CCC1` (centres unmarked) [Example 17, 1-[1-(4-bromophenyl)cyclobutyl]-6,7-dihydroxy-2-methyl-1,2,3,4-tetrahydroisoquinoline], the Ki was determined as 0.0039 µM in test [1] and 8.9 µM in test [2] (setting [3]). For the same compound, the “Ki for D2 / Ki for D1” value in test [2] came out at 2300.

As to `COc1cc2c(cc1O)C(C1(c3cccc4c3OCC4)CC1)N(C)CC2` (centres unmarked) [Example 82, 1-[1-(2,3-dihydrobenzo[b]furan-7-yl)cyclopropyl]-7-hydroxy-6-methoxy-2-methyl-1,2,3,4-tetrahydroisoquinoline], the Ki in test [1] was found to be 0.0018 µM; in test [2] (setting [3]), 4.9 µM. For the same compound, in test [2], the “Ki for D2 / Ki for D1” value is 2700.

For `C=CCN1CCc2cc(Cl)c(O)cc2C1C1(c2ccccc2)CCC1` (centres unmarked) [Example 65, 2-allyl-6-chloro-7-hydroxy-1-(1-phenylcyclobutyl)-1,2,3,4-tetrahydroisoquinoline], the Ki was 0.022 µM in test [1] and 51 µM in test [2] (setting [3]). In test [2], the “Ki for D2 / Ki for D1” value is 2300.

Regarding `CN1CCc2cc(F)c(O)cc2C1C1(c2ccc(Br)cc2)CCC1` (centres unmarked) [Example 6, 1-[1-(4-bromophenyl)cyclobutyl]-6-fluoro-7-hydroxy-2-methyl-1,2,3,4-tetrahydroisoquinoline], the figures for the Ki in test [1] and in test [2] (setting [3]) were 0.003 µM and 41 µM, respectively. The “Ki for D2 / Ki for D1” value in test [2] stood at 14000.

For the compound `CN1CCc2cc(Cl)c(O)cc2C1C1(c2ccccc2)CCC1` (single isomer, unassigned; (-)) [Example 59, (-)-6-chloro-7-hydroxy-2-methyl-1-(1-phenylcyclobutyl)-1,2,3,4-tetrahydroisoquinoline], the Ki in test [1] was 0.0052 µM; in test [2] (setting [3]), 3.2 µM. Further, the “Ki for D2 / Ki for D1” value in test [2] was 620.

Consider `CN1CCc2cc(O)c(O)cc2C1C1(c2ccccc2)CC1` (centres unmarked) [Example 27, 6,7-dihydroxy-2-methyl-1-(1-phenylcyclopropyl)-1,2,3,4-tetrahydroisoquinoline], for which the values for the Ki in test [1] and in test [2] (setting [3]) were 0.19 µM and 5.7 µM, respectively. The “Ki for D2 / Ki for D1” value in test [2] is 30.

Consider `CSc1ccccc1C1(C2c3cc(O)c(O)cc3CCN2C)CCC1` (centres unmarked) [Example 71, 6,7-dihydroxy-2-methyl-1-[1-(2-methylthiophenyl)cyclobutyl]-1,2,3,4-tetrahydroisoquinoline], for which the inhibition constant Ki in test [1] amounted to 0.0015 µM; in test [2] (setting [3]), 1.8 µM. The “Ki for D2 / Ki for D1” value in test [2] came out at 1200.

Take `CN1CCc2cc(-c3ccccc3)c(O)cc2C1C1(c2ccccc2Cl)CCC1` (centres unmarked) [Example 11, 1-[1-(2-chlorophenyl)cyclobutyl]-7-hydroxy-2-methyl-6-phenyl-1,2,3,4-tetrahydroisoquinoline]: the Ki in test [1] came to 0.15 µM; in test [2] (setting [3]), 3.5 µM. In test [2], the “Ki for D2 / Ki for D1” value was 23.

Regarding `CN1CCc2cc(O)c(O)cc2C1C1(c2ccc(Cl)cc2Cl)CCC1` (centres unmarked) [Example 46], the Ki in test [1] worked out at 0.0066 µM; in test [2] (setting [3]), 1.2 µM. In test [2], the “Ki for D2 / Ki for D1” value is recorded as 180.

In the case of `COc1cccc(C2(C3c4cc(O)c(OC)cc4CCN3C)CCC2)c1` (centres unmarked) [Example 39, 7-hydroxy-6-methoxy-1-[1-(3-methoxyphenyl)cyclobutyl]-2-methyl-1,2,3,4-tetrahydroisoquinoline], the Ki is 0.023 µM in test [1] and 1.9 µM in test [2] (setting [3]). For the same compound, the “Ki for D2 / Ki for D1” value in test [2] turned out to be 83.

Regarding `CN1CCc2cc(Cl)c(O)cc2C1C1(c2ccccc2)CC(C)(C)C1` (centres unmarked) [Example 30, 6-chloro-7-hydroxy-2-methyl-1-(3,3-dimethyl-1-phenylcyclobutyl)-1,2,3,4-tetrahydroisoquinoline], the results for the Ki in test [1] and in test [2] (setting [3]) were 0.066 µM and more than 5 µM, respectively. The “Ki for D2 / Ki for D1” value in test [2] is on record as more than 76.

Take `CN1CCc2cc(O)c(O)cc2C1C1(c2ccc(Cl)cc2)CCCCC1` (centres unmarked) [Example 16, 1-[1-(4-chlorophenyl)cyclohexyl]-6,7-dihydroxy-2-methyl-1,2,3,4-tetrahydroisoquinoline]: the Ki in test [1] was 0.18 µM; in test [2] (setting [3]), 3.2 µM. Further, the “Ki for D2 / Ki for D1” value in test [2] was 18.

For `Cc1cc2c(cc1O)C(C1(c3ccccc3Cl)CCC1)N(C)CC2` (centres unmarked) [Example 10, 1-[1-(2-chlorophenyl)cyclobutyl]-7-hydroxy-2,6-dimethyl-1,2,3,4-tetrahydroisoquinoline], the Ki in test [1] is 0.0016 µM; in test [2] (setting [3]), 2.5 µM. Moreover, the “Ki for D2 / Ki for D1” value in test [2] is 1600.

In the case of `COc1cc2c(cc1O)C(C1(c3ccccc3Cl)CCC1)N(C)CC2` (centres unmarked) [Example 35, 1-[1-(2-chlorophenyl)cyclobutyl]-7-hydroxy-6-methoxy-2-methyl-1,2,3,4-tetrahydroisoquinoline], the inhibitory constant (Ki) turned out to be 0.0013 µM in test [1] and 240 µM in test [2] (setting [3]). Moreover, in test [2], the “Ki for D2 / Ki for D1” value worked out at 180000.

Turning to `CN1CCc2cc(F)c(O)cc2C1C1(c2ccccc2Cl)CCC1` (centres unmarked) [Example 24, 1-[1-(2-chlorophenyl)cyclobutyl]-6-fluoro-7-hydroxy-2-methyl-1,2,3,4-tetrahydroisoquinoline], the inhibition constant Ki turned out to be 0.0019 µM in test [1] and 1.7 µM in test [2] (setting [3]). Also, in test [2], the “Ki for D2 / Ki for D1” value stood at 890.

`CN1CCc2cc(O)c(O)cc2C1C1(c2ccccc2)CC(C)(C)C1` (centres unmarked) [Example 21, 6,7-dihydroxy-2-methyl-1-(3,3-dimethyl-1-phenylcyclobutyl)-1,2,3,4-tetrahydroisoquinoline]: the Ki was 0.2 µM in test [1] and more than 5 µM in test [2] (setting [3]). Moreover, the “Ki for D2 / Ki for D1” value in test [2] is more than 25.

Regarding `CN1CCc2cc(F)c(O)cc2C1C1(c2ccc(Cl)cc2)CCC1` (centres unmarked) [Example 5, 1-[1-(4-chlorophenyl)cyclobutyl]-6-fluoro-7-hydroxy-2-methyl-1,2,3,4-tetrahydroisoquinoline], the Ki in test [1] was 0.0083 µM; in test [2] (setting [3]) it was 32 µM. For the same compound, the “Ki for D2 / Ki for D1” value in test [2] amounted to 3900.

In the case of `CN1CCc2cc(F)c(O)cc2C1C1(c2ccccc2Br)CCC1` (centres unmarked) [Example 34, 1-[1-(2-bromophenyl)cyclobutyl]-6-fluoro-7-hydroxy-2-methyl-1,2,3,4-tetrahydroisoquinoline], the inhibition constant (Ki) in test [1] was 0.0018 µM; in test [2] (setting [3]), 7.8 µM. Besides, the “Ki for D2 / Ki for D1” value in test [2] turned out to be 4300.

On to `CN1CCc2cc(F)c(O)cc2C1C1(c2ccccc2)CCC1` (centres unmarked) [Example 25, 6-fluoro-7-hydroxy-2-methyl-1-(1-phenylcyclobutyl)-1,2,3,4-tetrahydroisoquinoline], for which the figures for the Ki in test [1] and in test [2] (setting [3]) were 0.019 µM and 5400 µM, respectively. Also, in test [2], the “Ki for D2 / Ki for D1” value came out at 280000.
